Experimental data published in patent US7998978B2 (Pfizer Inc., priority 2006, dated 2011).

The compounds below were run against T1, JNK1α1 (Homo sapiens, UniProt P45983) (assay: Coupled spectrophotometric (PK/LDH) JNK1α1 assay: % inhibition and Ki determination). Conditions: @1 uM; read-out: % Inhibition JNK-1.
T1 construct: catalytic domain containing amino acids 1-364 and N-terminal hexahistidine tag; hexahistidine (His6) (N); made in house; host or cells: E. coli BL21 (DE3)
Format: biochemical
How it was run: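 Initial rates were taken from the absorbance decrease at 340 nm at 30° C. Ki was fitted with a tight-binding model over 11 concentrations (top 100 μM); single-point inhibition was tested at 1 or 10 μM.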

T1 sequence (P45983 1-364): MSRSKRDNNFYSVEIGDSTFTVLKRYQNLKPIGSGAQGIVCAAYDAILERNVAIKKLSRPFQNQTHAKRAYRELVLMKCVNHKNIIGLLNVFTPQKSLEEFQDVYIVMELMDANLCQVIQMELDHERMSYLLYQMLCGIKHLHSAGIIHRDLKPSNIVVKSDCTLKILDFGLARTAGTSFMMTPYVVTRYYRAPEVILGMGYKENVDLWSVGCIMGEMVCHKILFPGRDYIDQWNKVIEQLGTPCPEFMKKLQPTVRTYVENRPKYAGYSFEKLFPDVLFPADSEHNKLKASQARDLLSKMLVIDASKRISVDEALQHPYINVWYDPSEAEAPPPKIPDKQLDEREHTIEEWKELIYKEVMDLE

Row | inhibition at 1 µM | Compound
1 | 72% | CC1(COc2ccc3cnc(N[C@H]4CC[C@H](O)CC4)nc3c2)COC1 [Example 281, trans-4-({7-[(3-methyloxetan-3-yl)methoxy]quinazolin-2-yl}amino)cyclohexanol]
2 | 71% | O=C1OCCN1CCOc1ccc2cnc(N[C@H]3CC[C@H](O)CC3)nc2c1 [Example 282, 3-[2-({2-[(trans-4-hydroxycyclohexyl)amino]quinazolin-7-yl}oxy)ethyl]-1,3-oxazolidin-2-one]
3 | 33% | O[C@H]1CC[C@H](Nc2ncc3ccc(OC[C@@H]4CCCN5CCCC[C@H]45)cc3n2)CC1 [Example 283, trans-4-({7-[(1R,9aR)-octahydro-2H-quinolizin-1-ylmethoxy]quinazolin-2-yl}amino)cyclohexanol]
4 | 53% | O=C1CC[C@H](COc2ccc3cnc(N[C@H]4CC[C@H](O)CC4)nc3c2)N1 [Example 284, (5R)-5-[({2-[(trans-4-hydroxycyclohexyl)amino]quinazolin-7-yl}oxy)methyl]pyrrolidin-2-one]
5 | 29% | O[C@H]1CC[C@H](Nc2ncc3ccc(O[C@@H]4CCN(Cc5ccccc5)C4)cc3n2)CC1 [Example 285, trans-4-[(7-{[(3R)-1-benzylpyrrolidin-3-yl]oxy}quinazolin-2-yl)amino]cyclohexanol]
6 | 42% | O[C@H]1CC[C@H](Nc2ncc3ccc(OC4CCCN(Cc5ccccn5)C4)cc3n2)CC1 (stereo partly drawn) [Example 286, trans-4-[(7-{[1-(pyridin-2-ylmethyl)piperidin-3-yl]oxy}quinazolin-2-yl)amino]cyclohexanol]
7 | 62% | O=C1CN2C[C@@H](Oc3ccc4cnc(N[C@H]5CC[C@H](O)CC5)nc4c3)CC[C@H]2CN1 [Example 287, (7S,9aS)-7-({2-[(trans-4-hydroxycyclohexyl)amino]quinazolin-7-yl}oxy)hexahydro-2H-pyrido[1,2-a]pyrazin-3(4H)-one]
8 | 39% | O[C@H]1CC[C@H](Nc2ncc3ccc(OCc4nc5ccccc5[nH]4)cc3n2)CC1 [Example 288, trans-4-{[7-(1H-benzimidazol-2-ylmethoxy)quinazolin-2-yl]amino}cyclohexanol]
9 | 69% | CN1C(=O)OC[C@@H]1COc1ccc2cnc(N[C@H]3CC[C@H](O)CC3)nc2c1 [Example 289, 4-[({2-[(trans-4-hydroxycyclohexyl)amino]quinazolin-7-yl}oxy)methyl]-3-methyl-1,3-oxazolidin-2-one]
10 | 53% | O[C@H]1CC[C@H](Nc2ncc3ccc(OCC(F)(F)c4ccccn4)cc3n2)CC1 [Example 290, trans-4-{[7-(2,2-difluoro-2-pyridin-2-ylethoxy)quinazolin-2-yl]amino}cyclohexanol]
11 | 37% | CO[C@H]1CCCC[C@@H]1Oc1ccc2cnc(N[C@H]3CC[C@H](O)CC3)nc2c1 [Example 291, trans-4-[(7-{[(1S,2S)-2-methoxycyclohexyl]oxy}quinazolin-2-yl)amino]cyclohexanol]
12 | 54% | CNC(=O)c1ccc2c(c1)CCO[C@H]2CCOc1ccc2cnc(N[C@H]3CC[C@H](O)CC3)nc2c1 [Example 292, (1S)-1-[2-({2-[(trans-4-hydroxycyclohexyl)amino]quinazolin-7-yl}oxy)ethyl]-N-methyl-3,4-dihydro-1H-isochromene-6-carboxamide]
13 | 52% | O[C@H]1CC[C@H](Nc2ncc3ccc(OC4CCN(c5cccnn5)CC4)cc3n2)CC1 [Example 293, trans-4-({7-[(1-pyridazin 3-ylpiperidin-4-yl)oxy]quinazolin-2-yl}amino)cyclohexanol]
14 | 24% | O[C@H]1CC[C@H](Nc2ncc3ccc(OC[C@H]4CCCN4Cc4ccccc4)cc3n2)CC1 [Example 294, trans-4-[(7-{[(2R)-1-benzylpyrrolidin-2-yl]methoxy}quinazolin-2-yl)amino]cyclohexanol]
15 | 71% | Cc1noc(C)c1COc1ccc2cnc(N[C@H]3CC[C@H](O)CC3)nc2c1 [Example 295, trans-4-({7-[(3,5-dimethylisoxazol-4-yl)methoxy]quinazolin-2-yl}amino)cyclohexanol]
16 | 14% | C[C@@H]([C@H](Oc1ccc2cnc(N[C@H]3CC[C@H](O)CC3)nc2c1)c1ccccc1)N(C)C [Example 296, trans-4-[(7-{[(1R,2S)-2-(dimethylamino)-1-phenylpropyl]oxy}quinazolin-2-yl)amino]cyclohexanol]
17 | 28% | O[C@H]1CC[C@H](Nc2ncc3ccc(OCc4ccccc4CN4CCCC4)cc3n2)CC1 [Example 297, trans-4-[(7-{[2-(pyrrolidin-1-ylmethyl)benzyl]oxy}quinazolin-2-yl)amino]cyclohexanol]
18 | 18% | O[C@H]1CC[C@H](Nc2ncc3ccc(OC(CN4CCOCC4)c4ccccc4)cc3n2)CC1 (stereo partly drawn) [Example 298, trans-4-{[7-(2-morpholin-4-yl-1-phenylethoxy)quinazolin-2-yl]amino}cyclohexanol]
19 | 11% | CCc1ccc(C)nc1NC(=O)c1cccc2cnc(N[C@H]3CC[C@H](O)CC3)nc12 [Example 314, N-(3-ethyl-6-methylpyridin-2-yl)-2-[(trans-4-hydroxycyclohexyl)amino]quinazoline-8-carboxamide]
20 | 18% | COc1ncccc1NC(=O)c1cccc2cnc(N[C@H]3CC[C@H](O)CC3)nc12 [Example 316, 2-[(trans-4-hydroxycyclohexyl)amino]-N-(2-methoxypyridin-3-yl)quinazoline-8-carboxamide]
21 | 31% | Cn1nc(-c2ccncc2)cc1NC(=O)c1cccc2cnc(N[C@H]3CC[C@H](O)CC3)nc12 [Example 317, 2-[(trans-4-hydroxycyclohexyl)amino]-N-(1-methyl-3-pyridin-4-yl-1H-pyrazol-5-yl)quinazoline-8-carboxamide]
22 | 37% | Cc1nn(C)c(C)c1NC(=O)c1cccc2cnc(N[C@H]3CC[C@H](O)CC3)nc12 [Example 318, 2-[(trans-4-hydroxycyclohexyl)amino]-N-(1,3,5-trimethyl-1H-pyrazol-4-yl)quinazoline-8-carboxamide]
23 | 27% | CN(C)c1ncccc1NC(=O)c1cccc2cnc(N[C@H]3CC[C@H](O)CC3)nc12 [Example 319, N-[2-(dimethylamino)pyridin-3-yl]-2-[(trans-4-hydroxycyclohexyl)amino]quinazoline-8-carboxamide]

Same assay, conditions: @10 uM; read-out: % Inhibition JNK-1

Row | inhibition at 10 µM | Compound
24 | 36% | O=C(Nc1ccnn1Cc1ccccc1)c1cccc2cnc(N[C@H]3CC[C@H](O)CC3)nc12 [Example 311, N-(1-benzyl-1H-pyrazol-5-yl)-2-[(trans-4-hydroxycyclohexyl)amino]quinazoline-8-carboxamide]
25 | 76% | Cc1cc(NC(=O)c2cccc3cnc(N[C@H]4CC[C@H](O)CC4)nc23)n(C(C)C)n1 [Example 312, 2-[(trans-4-hydroxycyclohexyl)amino]-N-(1-isopropyl-3-methyl-1H-pyrazol-5-yl)quinazoline-8-carboxamide]
26 | 71% | Cc1cc(C)nc(NC(=O)c2cccc3cnc(N[C@H]4CC[C@H](O)CC4)nc23)n1 [Example 313, N-(4,6-dimethylpyrimidin-2-yl)-2-[(trans-4-hydroxycyclohexyl)amino]quinazoline-8-carboxamide]
27 | 52% | O=C(Nc1nccc2cccnc12)c1cccc2cnc(N[C@H]3CC[C@H](O)CC3)nc12 [Example 315, 2-[(trans-4-hydroxycyclohexyl)amino]-N-1,7-naphthyridin-8-ylquinazoline-8-carboxamide]
